Assay: Metabolite radio-profiling (LC-RAM, LC-MS/MS) of plasma, urine and feces
Format: in vivo, human
Settings: pooled plasma 2–96 h, subjects 03–06
Procedure: An equal volume of 2, 4, 8, 12, 24, and 96 h plasma sample was pooled by time-point across subject 03 ~ 06, to give six pooled plasma samples for metabolite profiling. An appropriate volume (3x, v/v) of acetonitrile was added to a portion of the pooled plasma sample, followed by vortexing ca. 2 min. After storage in a refrigerator for ca. 30 min, the mixture was centrifuged at ca. 10000 g at 4 °C for 10 min. The supernatant was then separated from the PES, which was suspended with water, followed by addition of methanol (2x, v/v) twice. The three extracts were combined and evaporated to dryness under a nitrogen stream by an N-Evap evaporator at room temperature. The residues were reconstituted with an appropriate volume of methanol:water (1:1, v/v) and centrifuged at ca. 10000 g at 4 ℃ for 10 min. The supernatant was subjected to HPLC radio-profiling.
Four pooled human urine samples (subject 03 ~ 06) were pooled from 0 to 432 h based on equal volume ratios from the individual patients across time intervals. In addition, three pooled urine samples (0–48, 48–120 and 360–432 h) (subjects 03–06) were prepared by pooling human urine samples across subjects and time points. Portion of the pooled urine sample was evaporated to a small volume under a nitrogen stream and extracted with methanol (3x, v/v) followed by centrifuged at ca. 10000 g at 4 ℃ for 10 min. The supernatant was reconstituted with an appropriate volume of methanol:water (1:1, v/v) and centrifuged at ca. 10000 g at 4 ℃ for 10 min. The supernatant was subjected to HPLC radio-profiling.
Four human fecal samples (0–432 h) were prepared by pooling feces from individual subjects (Subjects 03–06). In addition, three pooled human fecal samples (0–48, 48–120 and 360–432 h) were prepared by pooling feces samples across subjects and time points. The pooled fecal homogenate was extracted with methanol (3x, v/v) and the mixture was vortexed, and centrifuged at ca. 10000 g at 4 ℃ for 10 min. The supernatant was then separated from the PES, which was suspended with water, followed by addition of methanol twice. The three extracts were combined and evaporated to dryness under a nitrogen stream by an N-Evap evaporator at room temperature. The residues were reconstituted with an appropriate volume of methanol:water (1:1, v/v) and centrifuged at ca. 10000 g at 4 ℃ for 10 min prior to analysis.
HPLC coupled with radioactivity monitor (LC-RAM) was used to isolate and quantitate [^14C] anlotinib and its metabolites. The plasma and fecal extracts as well as urine supernatants were subjected to HPLC separation, fractionation, and eluent collection. The radioactivity in each fraction was monitored by solid scintillation counting using a Packard TopCount® NXT™ Microplate Counter. The radio-profiles were then reconstructed using ARC® Convert software. The peak area of each radioactivity peak/region was integrated using ARC® Evaluation software, and the percent distribution of each peak/region was calculated (%TRA for plasma or %Dose for urine and feces).
Metabolites were characterized and/or identified by LC–MS/MS in conjunction with on-line radioactivity detection. Structures of metabolites were proposed by interpretation of the mass spectral fragmentation pattern, as well as chromatographic behaviors and metabolic pathways.

Row | Drug-related component in human plasma (radio-profile) | SMILES
1 | detected | COc1cc2c(Oc3ccc4[nH]c(C)cc4c3F)ccnc2cc1OCC1(O)CC1 [M28]
2 | detected | COc1cc2c(Oc3ccc4[nH]c(C)cc4c3F)ccnc2cc1O [M18]
3 | major drug-related component | COc1cc2c(Oc3ccc4[nH]c(C(=O)O)cc4c3F)ccnc2cc1OCC1(N)CC1 [M30]
